Measured values reported in article PMC6921279 (Frontiers in Endocrinology, 2019).

Assays:
rat cardiomyocytes = test system: rat cardiomyocytes; parameters: method as in PMID 12970163; conditions: CRF2R activation by Ucn2 and Ucn3; cited from earlier work
β2-adrenergic receptor = test system: β2-adrenergic receptor; parameters: method as in PMID 15489914, PMID 11278940; conditions: A431 cells; cited from earlier work
Excerpt: Moreover, there is evidence that Tyr phosphorylation of GPCRs plays a role in mediating GPCR-Src interactions ([43]). […] This residue lies within a canonical Src SH2 binding domain, and it is proposed that Src directly binds the Tyr-phosphorylated β2-AR.

[1] = test system: CRF1R-mediated ERK1/2 phosphorylation; experiment: Modulation of CRF-stimulated ERK1/2 phosphorylation in COS-7 cells expressing HA-CRF1R; assay type: cell-based; conditions: 100 nM CRF, 5 min
Description: (§1) Plasmid pRK5 encoding the carboxyl terminus of βARK that contains its βγ-binding domain (ct-βARK) was kindly provided by Dr. W. Koch (Center for Translational Medicine, Temple University, Philadelphia, PA), which is a scavenger for G protein βγ subunits ([25]). […] Plasmid pUSEamp encoding dominant-negative Akt-K179M (dn-Akt) was from Upstate Biotechnology (Lake Placid, NY).
(§2) COS-7 cells (from the American Type Culture Collection) were cultured at 37°C in a humidified atmosphere of 95% air, 5% CO2, in DMEM supplemented with 10% FBS, 100 μg/ml streptomycin, and 100 units/ml penicillin (COS-7 growth medium). Transient transfections were performed using LipofectAMINE (Life Technologies: Gaithersburg, MD) as described previously ([27]). Cells were seeded at 8 × 10^5 cells/10-cm dish in COS-7 medium and cultured for 3 days before transfection. COS-7 cells were transfected in 5 ml/dish OptiMEM containing 10 μg/ml LipofectAMINE with empty vector, pcDNA3 encoding the HA-CRF1R or the HA-CRF1R-Δ386 mutant. […] After replacing the transfection medium with fresh growth medium, transfected COS-7 cells were cultured for 1 day. Subsequently, cells were re-seeded in 6-well plates and cultured for an additional day prior to the experiment.
(§3) The protocols for measuring total and phosphorylated ERK1/2, c-Src, PYK2, Akt, and EGFR have been previously published ([28], [29]). After cells were cultured to 60–70% confluence, they were serum-deprived for 24 h. On the day of the experiment, cells were treated with the indicated ligands and inhibitors. […] After treatment, cells were placed on ice, the media was aspirated, and the cells were washed twice with ice-cold PBS and lysed in 100 μl of Laemmli sample buffer 1X. The lysates were briefly sonicated, heated at 95°C for 5 min, and centrifuged for 5 min at 14,000 rpm. Resulting supernatants were loaded in separate lanes of a 10% SDS-PAGE gels and electrophoresed. Next, Western transfer on to PDVF membranes was completed. The Western blots were then probed with specific antibodies targeting phosphorylated and non-phosphorylated forms of ERK1/2, c-Src, PYK2, Akt, and EGFR for primary immunodetection. After blots were probed with horseradish peroxidase-conjugated secondary antibody, protein bands were visualized with enhanced chemiluminescence ECL reagent (Amersham Pharmacia Biotech, Piscataway, NJ or Pierce Biotechnology, Rockford, IL) and scanned using the GS-800 Calibrated Imaging Densitometer (Bio-Rad). The labeled bands were quantified using the Quantity One 4.6.3 software program (Bio-Rad).
Total cell lysates were separated by SDS-PAGE and analyzed by immunoblotting with anti-p-ERK1/2 Thr^202/Tyr^204, as described in Materials and Methods. ERK1/2 phosphorylation was quantitated by densitometry, and mean values were plotted from five independent experiments.
Total cell lysates were separated by SDS-PAGE and analyzed by immunoblotting with anti-p-ERK1/2 Thr^202/Tyr^204 (A–D) or anti-p-EGFR Tyr^1068 (E), as described in Materials and Methods. ERK1/2 and EGFR phosphorylation were quantitated by densitometry, and mean values were plotted from three to five independent experiments.
Total cell lysates were separated by SDS-PAGE and analyzed by immunoblotting with anti-p-ERK1/2 Thr^202/Tyr^204, as described in Materials and Methods. ERK1/2 phosphorylation was quantitated by densitometry, and mean values were plotted from three to five independent experiments.

EGFR Tyr845 = experiment: CRF-induced EGFR phosphorylation at Tyr845 in COS-7 cells expressing HA-CRF1R; assay type: cell-based; conditions: 10 μM PP2, 30 min pretreatment; 100 nM CRF, 5 min
Description: (§4) COS-7 cells (from the American Type Culture Collection) were cultured at 37°C in a humidified atmosphere of 95% air, 5% CO2, in DMEM supplemented with 10% FBS, 100 μg/ml streptomycin, and 100 units/ml penicillin (COS-7 growth medium). Transient transfections were performed using LipofectAMINE (Life Technologies: Gaithersburg, MD) as described previously ([27]). Cells were seeded at 8 × 10^5 cells/10-cm dish in COS-7 medium and cultured for 3 days before transfection. COS-7 cells were transfected in 5 ml/dish OptiMEM containing 10 μg/ml LipofectAMINE with empty vector, pcDNA3 encoding the HA-CRF1R or the HA-CRF1R-Δ386 mutant. […]
(§5) The protocols for measuring total and phosphorylated ERK1/2, c-Src, PYK2, Akt, and EGFR have been previously published ([28], [29]). […] The labeled bands were quantified using the Quantity One 4.6.3 software program (Bio-Rad).
(§6) Figure 6 CRF mediates EGFR phosphorylation at Tyr^845 and activation of PYK2. […] Total cell lysates were separated by SDS-PAGE and analyzed by immunoblotting with anti-p-EGFR Tyr^845 (A,B) or anti-p-PYK2 Tyr^402 (E), as described in Materials and Methods. EGFR and ERK1/2 phosphorylation were quantitated by densitometry, and mean values were plotted from three to five independent experiments. […] Src and EGFR were quantitated by densitometry, and mean values were plotted from three independent experiments. […]

Src = experiment: CRF-induced Src phosphorylation at Tyr416 in COS-7 cells expressing HA-CRF1R; assay type: cell-based; conditions: 10 μM PP2, 30 min pretreatment; 100 nM CRF, 5 min
Description: COS-7 cells (from the American Type Culture Collection) were cultured at 37°C in a humidified atmosphere of 95% air, 5% CO2, in DMEM supplemented with 10% FBS, 100 μg/ml streptomycin, and 100 units/ml penicillin (COS-7 growth medium). Transient transfections were performed using LipofectAMINE (Life Technologies: Gaithersburg, MD) as described previously ([27]). Cells were seeded at 8 × 10^5 cells/10-cm dish in COS-7 medium and cultured for 3 days before transfection. COS-7 cells were transfected in 5 ml/dish OptiMEM containing 10 μg/ml LipofectAMINE with empty vector, pcDNA3 encoding the HA-CRF1R or the HA-CRF1R-Δ386 mutant. […] After replacing the transfection medium with fresh growth medium, transfected COS-7 cells were cultured for 1 day. […]
as §5
Figure 5 Role of Src tyrosine kinase in CRF-stimulated ERK1/2 phosphorylation. […] Total cell lysates were separated by SDS-PAGE and analyzed by immunoblotting with anti-p-Src Tyr^416 (A,B) or anti-p-ERK1/2 Thr^202/Tyr^204 (C–E), as described in Materials and Methods. Src, PYK2, and ERK1/2 phosphorylation were quantitated by densitometry, and mean values were plotted from three to five independent experiments. […]

PYK2 = experiment: CRF-induced PYK2 phosphorylation at Tyr402 in COS-7 cells expressing HA-CRF1R; assay type: cell-based; conditions: PP2 (discussion)
Description: as §4, §5, §6

[2] = test system: CRF1R-mediated Akt phosphorylation; experiment: CRF-induced Akt phosphorylation at Ser473 in COS-7 cells expressing HA-CRF1R; assay type: cell-based, human; conditions: PP2 10 μM, 30 min pretreatment; 100 nM CRF, 5 min
Description: as §1, §2
as §3, with “After blots were probed with horseradish peroxidase-conjugated secondary antibody, protein bands were visualized with enhanced chemiluminescence ECL reagent (Amersham Pharmacia Biotech, Piscataway, NJ or Pierce Biotechnology, Rockford, IL) and scanned using the GS-800 Calibrated Imaging Densitometer (Bio-Rad).” left out
Figure 7 CRF mediates Akt activation. […] Total cell lysates were separated by SDS-PAGE and analyzed by immunoblotting with anti-p-Akt Ser^473, as described in Materials and Methods. Akt phosphorylation was quantitated by densitometry, and mean values were plotted from three to five independent experiments. […]

[3] = test system: MEK1/2-mediated phosphorylation of ERK1/2; parameters: method as in PMID 16484629, PMID 10098484, PMID 14670995, PMID 11117536, PMID 12970163; conditions: CRF1R and CRF2R signaling, various cell lines; cited from earlier work

CCCC[C@@H](C)/C=C(C)/C=C(\C)C(=O)NC1=C[C@@](O)(/C=C/C=C/C=C/C(=O)NC2=C(O)CCC2=O)[C@@H]2O[C@@H]2C1=O [manumycin A]
effect on ERK1/2 phosphorylation (rat cardiomyocytes): abolish ERK1/2 phosphorylation

CC(C)NCC(O)c1ccc(O)c(O)c1 (stereo not drawn) [isoproterenol]
phosphorylation of β2-AR (β2-adrenergic receptor): results in phosphorylation of the receptor on Tyr^305

CC(C)(C)n1nc(-c2ccc(Cl)cc2)c2c(N)ncnc21 [PP2]
effect on CRF-stimulated ERK1/2 phosphorylation ([1]; 10 μM PP2, 30 min pretreatment): abolished CRF-stimulated ERK1/2 phosphorylation | IC50 ([1]; PP2 0–20 μM, 30 min pretreatment, read-out: IC50, inhibition of CRF-stimulated ERK1/2 phosphorylation): 2000 nM | effect on CRF-induced EGFR Tyr845 phosphorylation (EGFR Tyr845): blocked | effect on CRF-induced Src phosphorylation (Src): CRF-induced Src phosphorylation was prevented | effect on CRF-stimulated activation of Src, PYK2, the EGFR, and ERK1/2 (PYK2): markedly reduced or abolished the CRF-stimulated activation of Src, PYK2, the EGFR, and ERK1/2 | effect on CRF-induced Akt activation [2]: completely inhibited

COc1cccc(-c2cc(=O)c3ccccc3o2)c1N [PD98059]
effect on ERK1/2 activation [3]: inhibiting ERK1/2 activation
